Assay: Evaluation of pharmacokinetic parameters for Nisoldipine following oral administration of 17 to 51 mg of Nisoldipine extended release tablets.
Format: ADME, organism-based
Settings: human, in vivo, dose 17-51 mg, dosed compound id 7, dosed compound name NISOLDIPINE, tissue Plasma

Tmax: 9.2 h
bioavailability: 5%
half-life (read-out: t1/2-elimination (converted)): 13.7 h
Compound: COC(=O)C1=C(C)NC(C)=C(C(=O)OCC(C)C)C1c1ccccc1[N+](=O)[O-] (stereo not drawn) [NISOLDIPINE]

— ChEMBL document CHEMBL3832552, “DailyMed|setid=e3780ba1-46ef-410c-b2fc-f1ffbfb598f3 | SULAR - nisoldipine tablet, film coated, extended release|Physicians Total Care, Inc”
